Measurements from ChEMBL document CHEMBL3885861, “Open TG-GATES”.

Organism: Rattus norvegicus
Experiment: Open TG-GATES - Regimen: Daily Repeat
Type: toxicity, organism-based, Sprague-Dawley
Parameters: regimen Daily Repeat, gender Male, age 6 weeks
Conditions: in vivo, po, route gavage; for APTT / Bas / Eos / Fbg / Hb / Ht / Lym / MCH / MCHC / MCV / Mono / Neu / PT / Plat / RBC / Ret / WBC: tissue Blood; for KIDNEY_L / KIDNEY_R / KIDNEY_TOTAL: tissue Kidney; for LIVER: tissue Liver; for A/G / ALP / ALT / AST / BUN / CRE / Ca / Cl / DBIL / GLC / IP / K / LDH / Na / PL / RALB / TBIL / TC / TG / TP / gamma-GTP: tissue Plasma
[1] = 300 mg/kg, 72 h, dose level Middle, time 3 day
[2] = 300 mg/kg, […], dose level Middle, time 7 day
[3] = 300 mg/kg, […], dose level Middle, time 14 day
[4] = 300 mg/kg, […], dose level Middle, time 28 day
[5] = 1000 mg/kg, 72 h, dose level High, time 3 day
[6] = 1000 mg/kg, […], dose level High, time 7 day
[7] = 1000 mg/kg, […], dose level High, time 14 day
[8] = 1000 mg/kg, […], dose level High, time 28 day

Cc1nnc2n1-c1ccc(Cl)cc1C(c1ccccc1Cl)=NC2 [TRIAZOLAM]
TERMINAL_BW [1]: 220.9 g
APTT [1]: 25.7 s
Bas [1]: 0.2%
Eos [1]: 1%
Fbg [1]: 302 mg/dL
Hb [1]: 13.8 g/dL
Ht [1]: 41.2%
Lym [1]: 78.6%
MCH [1]: 21.6 pg
MCHC [1]: 33.4%
MCV [1]: 64.4 fL
Mono [1]: 3.2%
Neu [1]: 16.2%
PT [1]: 12.8 s
Plat [1]: 108.5 x10_4/uL
RBC [1]: 639.2 x10_4/ul
Ret [1]: 6.8%
WBC [1]: 124.2 x10_2/uL
KIDNEY_L [1]: 1 g
KIDNEY_R [1]: 1 g
KIDNEY_TOTAL [1]: 1.9 g
LIVER [1]: 10.9 g
A/G [1]: 0.9
ALP [1]: 1522.4 IU/L
ALT [1]: 53.4 IU/L
AST [1]: 74.4 IU/L
BUN [1]: 14.6 mg/dL
CRE [1]: 0.2 mg/dL
Ca [1]: 11.1 mg/dL
Cl [1]: 104.2 meq/L
DBIL [1]: 0.014 mg/dL
GLC [1]: 176.8 mg/dL
IP [1]: 8.2 mg/dL
K [1]: 3.9 meq/L
LDH [1]: 104.8 IU/L
Na [1]: 141.6 meq/L
PL [1]: 155 mg/dL
RALB [1]: 2.6 g/dL
TBIL [1]: 0.048 mg/dL
TC [1]: 81 mg/dL
TG [1]: 82 mg/dL
TP [1]: 5.6 g/dL
gamma-GTP [1]: 1 IU/L
TERMINAL_BW [2]: 262.7 g
TERMINAL_BW [3]: 306.6 g
TERMINAL_BW [4]: 407.3 g
APTT [2]: 19.2 s
Bas [2]: 0%
Eos [2]: 1%
Fbg [2]: 262.6 mg/dL
Hb [2]: 13.6 g/dL
Ht [2]: 40.5%
Lym [2]: 76.6%
MCH [2]: 21.4 pg
MCHC [2]: 33.6%
MCV [2]: 63.6 fL
Mono [2]: 3.4%
Neu [2]: 18.6%
PT [2]: 12.8 s
Plat [2]: 124.7 x10_4/uL
RBC [2]: 637.8 x10_4/ul
Ret [2]: 7%
WBC [2]: 119.6 x10_2/uL
APTT [3]: 17.8 s
Bas [3]: 0.4%
Eos [3]: 1%
Fbg [3]: 245.8 mg/dL
Hb [3]: 14.1 g/dL
Ht [3]: 43.1%
Lym [3]: 76%
MCH [3]: 19.9 pg
MCHC [3]: 32.8%
MCV [3]: 60.8 fL
Mono [3]: 2.2%
Neu [3]: 19.4%
PT [3]: 13.5 s
Plat [3]: 113 x10_4/uL
RBC [3]: 710 x10_4/ul
Ret [3]: 4.9%
WBC [3]: 121.8 x10_2/uL
APTT [4]: 18.4 s
Bas [4]: 0%
Eos [4]: 1.2%
Fbg [4]: 262.4 mg/dL
Hb [4]: 15.3 g/dL
Ht [4]: 45.6%
Lym [4]: 82%
MCH [4]: 19.3 pg
MCHC [4]: 33.6%
MCV [4]: 57.5 fL
Mono [4]: 1.4%
Neu [4]: 14.2%
PT [4]: 13.6 s
Plat [4]: 106.2 x10_4/uL
RBC [4]: 793.4 x10_4/ul
Ret [4]: 2.3%
WBC [4]: 88.2 x10_2/uL
KIDNEY_L [2]: 1.1 g
KIDNEY_R [2]: 1.1 g
KIDNEY_TOTAL [2]: 2.2 g
KIDNEY_L [3]: 1.2 g
KIDNEY_R [3]: 1.2 g
KIDNEY_TOTAL [3]: 2.4 g
KIDNEY_L [4]: 1.4 g
KIDNEY_R [4]: 1.4 g
KIDNEY_TOTAL [4]: 2.8 g
LIVER [2]: 12.6 g
LIVER [3]: 13.4 g
LIVER [4]: 15.8 g
A/G [2]: 0.9
ALP [2]: 1686 IU/L
ALT [2]: 53 IU/L
AST [2]: 75 IU/L
BUN [2]: 19 mg/dL
CRE [2]: 0.2 mg/dL
Ca [2]: 11.1 mg/dL
Cl [2]: 104.8 meq/L
DBIL [2]: 0.012 mg/dL
GLC [2]: 187.2 mg/dL
IP [2]: 7.5 mg/dL
K [2]: 4.2 meq/L
LDH [2]: 84.8 IU/L
Na [2]: 141.4 meq/L
PL [2]: 162.8 mg/dL
RALB [2]: 2.6 g/dL
TBIL [2]: 0.038 mg/dL
TC [2]: 79 mg/dL
TG [2]: 103.4 mg/dL
TP [2]: 5.7 g/dL
gamma-GTP [2]: 1 IU/L
A/G [3]: 0.8
ALP [3]: 1485.8 IU/L
ALT [3]: 43 IU/L
AST [3]: 73 IU/L
BUN [3]: 15 mg/dL
CRE [3]: 0.2 mg/dL
Ca [3]: 10.8 mg/dL
Cl [3]: 104.6 meq/L
DBIL [3]: 0.008 mg/dL
GLC [3]: 182.2 mg/dL
IP [3]: 7.2 mg/dL
K [3]: 4.1 meq/L
LDH [3]: 87.4 IU/L
Na [3]: 142.8 meq/L
PL [3]: 140 mg/dL
RALB [3]: 2.6 g/dL
TBIL [3]: 0.036 mg/dL
TC [3]: 67.2 mg/dL
TG [3]: 105.4 mg/dL
TP [3]: 5.7 g/dL
gamma-GTP [3]: 1.2 IU/L
A/G [4]: 0.8
ALP [4]: 1211.8 IU/L
ALT [4]: 36.4 IU/L
AST [4]: 67.8 IU/L
BUN [4]: 16.8 mg/dL
CRE [4]: 0.3 mg/dL
Ca [4]: 10.7 mg/dL
Cl [4]: 105 meq/L
DBIL [4]: 0.012 mg/dL
GLC [4]: 186.4 mg/dL
IP [4]: 6.2 mg/dL
K [4]: 4.1 meq/L
LDH [4]: 82.2 IU/L
Na [4]: 142 meq/L
PL [4]: 145.8 mg/dL
RALB [4]: 2.7 g/dL
TBIL [4]: 0.058 mg/dL
TC [4]: 70.6 mg/dL
TG [4]: 110.8 mg/dL
TP [4]: 6.2 g/dL
gamma-GTP [4]: 1 IU/L
TERMINAL_BW [5]: 221.7 g
APTT [5]: 18.3 s
Bas [5]: 0.2%
Eos [5]: 1%
Fbg [5]: 278.6 mg/dL
Hb [5]: 13.8 g/dL
Ht [5]: 41.1%
Lym [5]: 78.2%
MCH [5]: 21.3 pg
MCHC [5]: 33.6%
MCV [5]: 63.4 fL
Mono [5]: 3.6%
Neu [5]: 16%
PT [5]: 13 s
Plat [5]: 124.4 x10_4/uL
RBC [5]: 650.2 x10_4/ul
Ret [5]: 6.4%
WBC [5]: 105.8 x10_2/uL
KIDNEY_L [5]: 1 g
KIDNEY_R [5]: 1 g
KIDNEY_TOTAL [5]: 1.9 g
LIVER [5]: 10.9 g
A/G [5]: 0.9
ALP [5]: 1527.4 IU/L
ALT [5]: 56 IU/L
AST [5]: 67.4 IU/L
BUN [5]: 14.4 mg/dL
CRE [5]: 0.2 mg/dL
Ca [5]: 11.5 mg/dL
Cl [5]: 102.8 meq/L
DBIL [5]: 0.016 mg/dL
GLC [5]: 167 mg/dL
IP [5]: 9.1 mg/dL
K [5]: 4.2 meq/L
LDH [5]: 98.4 IU/L
Na [5]: 141.6 meq/L
PL [5]: 157 mg/dL
RALB [5]: 2.6 g/dL
TBIL [5]: 0.048 mg/dL
TC [5]: 81.2 mg/dL
TG [5]: 84.2 mg/dL
TP [5]: 5.6 g/dL
gamma-GTP [5]: 1 IU/L
TERMINAL_BW [6]: 254.6 g
TERMINAL_BW [7]: 312.6 g
TERMINAL_BW [8]: 383.1 g
APTT [6]: 17.8 s
Bas [6]: 0%
Eos [6]: 1%
Fbg [6]: 282.6 mg/dL
Hb [6]: 13.7 g/dL
Ht [6]: 40.7%
Lym [6]: 74%
MCH [6]: 20.9 pg
MCHC [6]: 33.6%
MCV [6]: 62.1 fL
Mono [6]: 2.6%
Neu [6]: 21.6%
PT [6]: 12.8 s
Plat [6]: 129.1 x10_4/uL
RBC [6]: 656.2 x10_4/ul
Ret [6]: 5.5%
WBC [6]: 113.3 x10_2/uL
APTT [7]: 18.3 s
Bas [7]: 0.4%
Eos [7]: 1%
Fbg [7]: 249.6 mg/dL
Hb [7]: 14.2 g/dL
Ht [7]: 43.5%
Lym [7]: 78.6%
MCH [7]: 20 pg
MCHC [7]: 32.6%
MCV [7]: 61.2 fL
Mono [7]: 2.6%
Neu [7]: 16.8%
PT [7]: 13.3 s
Plat [7]: 123.4 x10_4/uL
RBC [7]: 711.4 x10_4/ul
Ret [7]: 5.3%
WBC [7]: 135.4 x10_2/uL
APTT [8]: 18.3 s
Bas [8]: 0.2%
Eos [8]: 1.4%
Fbg [8]: 273 mg/dL
Hb [8]: 15.3 g/dL
Ht [8]: 45.2%
Lym [8]: 76.2%
MCH [8]: 19.7 pg
MCHC [8]: 33.9%
MCV [8]: 58.2 fL
Mono [8]: 2.2%
Neu [8]: 18.4%
PT [8]: 13.2 s
Plat [8]: 112.9 x10_4/uL
RBC [8]: 776.4 x10_4/ul
Ret [8]: 2.4%
WBC [8]: 103.3 x10_2/uL
KIDNEY_L [6]: 1.1 g
KIDNEY_R [6]: 1.1 g
KIDNEY_TOTAL [6]: 2.3 g
KIDNEY_L [7]: 1.3 g
KIDNEY_R [7]: 1.3 g
KIDNEY_TOTAL [7]: 2.5 g
KIDNEY_L [8]: 1.4 g
KIDNEY_R [8]: 1.4 g
KIDNEY_TOTAL [8]: 2.8 g
LIVER [6]: 12.4 g
LIVER [7]: 14.2 g
LIVER [8]: 15.2 g
A/G [6]: 0.9
ALP [6]: 1848.4 IU/L
ALT [6]: 47.2 IU/L
AST [6]: 67.2 IU/L
BUN [6]: 15.8 mg/dL
CRE [6]: 0.2 mg/dL
Ca [6]: 11.2 mg/dL
Cl [6]: 105 meq/L
DBIL [6]: 0.014 mg/dL
GLC [6]: 176.6 mg/dL
IP [6]: 7.4 mg/dL
K [6]: 4.7 meq/L
LDH [6]: 86.2 IU/L
Na [6]: 142 meq/L
PL [6]: 160.8 mg/dL
RALB [6]: 2.7 g/dL
TBIL [6]: 0.032 mg/dL
TC [6]: 78.6 mg/dL
TG [6]: 108.2 mg/dL
TP [6]: 5.7 g/dL
gamma-GTP [6]: 1 IU/L
A/G [7]: 0.9
ALP [7]: 1576.6 IU/L
ALT [7]: 48 IU/L
AST [7]: 71.6 IU/L
BUN [7]: 17.8 mg/dL
CRE [7]: 0.2 mg/dL
Ca [7]: 10.8 mg/dL
Cl [7]: 103.6 meq/L
DBIL [7]: 0.01 mg/dL
GLC [7]: 188.4 mg/dL
IP [7]: 7.7 mg/dL
K [7]: 4.1 meq/L
LDH [7]: 112.2 IU/L
Na [7]: 141.8 meq/L
PL [7]: 157.6 mg/dL
RALB [7]: 2.6 g/dL
TBIL [7]: 0.036 mg/dL
TC [7]: 74.8 mg/dL
TG [7]: 127.4 mg/dL
TP [7]: 5.7 g/dL
gamma-GTP [7]: 1 IU/L
A/G [8]: 0.8
ALP [8]: 950 IU/L
ALT [8]: 41.2 IU/L
AST [8]: 68.8 IU/L
BUN [8]: 15.4 mg/dL
CRE [8]: 0.2 mg/dL
Ca [8]: 10.5 mg/dL
Cl [8]: 105.2 meq/L
DBIL [8]: 0.002 mg/dL
GLC [8]: 181 mg/dL
IP [8]: 6 mg/dL
K [8]: 4 meq/L
LDH [8]: 75 IU/L
Na [8]: 142.2 meq/L
PL [8]: 159.8 mg/dL
RALB [8]: 2.8 g/dL
TBIL [8]: 0.046 mg/dL
TC [8]: 79.8 mg/dL
TG [8]: 92 mg/dL
TP [8]: 6.1 g/dL
gamma-GTP [8]: 1.2 IU/L
